Here are results for six compounds from publication PMC7463999, “Antioxidant, Anti-inflammatory and Neuroprotective Profiles of Novel 1,4-Dihydropyridine Derivatives for the Treatment of Alzheimer’s Disease” (Antioxidants, 2020).

Values joined by “and” are separate entries in the source; they are usually repeats but may differ in a detail not shown here. Equal values may be shown once. Read-outs that look alike come from different tables or passages of the source.

Data set [1] relates to SH-SY5Y human neuroblastoma cells. The experiment in a line: Neuroprotection against rotenone/oligomycin A (oxidative stress), MTT. The settings on record: 1 μM, rotenone 30 μM / oligomycin A 10 μM, 24 h.
Procedure: (§1) Cells were pre-incubated with the corresponding compound at 1 μM in neuroblastoma culture medium. After 24 h, the medium was removed and replaced with 1% FBS neuroblastoma culture media containing the corresponding compound at 1 µM and the toxic stimuli, namely a mixture of rotenone and oligomycin A (R/O, 30 μM/10 μM, respectively), okadaic acid (OA) at 20 nM or a high concentration of KCl (70 mM). Cells were co-incubated for further 24 h with the R/O mixture or KCl solution, or 18 h with the OA solution. […] Control cells were incubated with the same amount of dimethyl sulfoxide (DMSO) without any drug. After the co-incubation period, cell viability was assessed by the 3-(4,5-dimethylthiazol-2-yl)-2,5-diphenyltetrazolium bromide (MTT) reduction method [56]; basal condition was considered as 100% survival.
(§2) Neuroprotection in the SH-SY5Y neuroblastoma cell line
(§3) A pre- and co-incubation protocol was followed. Cells were pre-incubated with the
(§4) corresponding compound at 1 M in neuroblastoma culture medium. After 24 h, the
(§5) medium was removed and replaced with 1% FBS neuroblastoma culture media
(§6) containing the corresponding compound at 1 µM and the toxic stimuli, namely a mixture
(§7) of rotenone and oligomycin A (30 M/10 M respectively), okadaic acid at 20 nM or a
(§8) high concentration of potassium chloride (70 mM). Cells were co-incubated for further
(§9) 24 h with the rotenone and oligomycin A or potassium chloride solution, or 18 h with the
(§10) okadaic acid solution. Control cells were incubated with the same amount of DMSO
(§11) and reference compounds in the rotenone-oligomycin A, okadaic acid or high
(§12) concentration of potassium models respectively. After the co-incubation period, cell
(§13) viability was assessed by the MTT-reduction method [11] considering basal conditions
Viability assay by MTT-reduction
(§14) SH-SY5Y, primary glial culture cells and rat hippocampal slices viability was
(§15) measured by the MTT assay [11]. This method is based on the cleavage of the tetrazolium
(§16) ring of MTT by active dehydrogenases, generating a formazan precipitate. At the end of
(§17) the neuroprotection or toxicity experiments, an MTT solution was added to each well to
(§18) reach a final concentration of 0.5 mg/mL. After 2 additional hours of incubation, the
(§19) solution was replaced by 100 or 300 µL of DMSO to solubilize the formazan precipitate.
(§20) in control cells was considered as 100 % of cell survival and used to reference all
(§21) treatments. The percentage of protection was calculated as follows: the percentage of cell
(§22) survival obtained with the toxic stimuli-treated cells subtracted to 100 was normalized to
(§23) 100 % of cell death. The percentage of protection was obtained by subtracting the
(§24) percentage of cell death in presence of the tested compound to 100 %.
The test system of data set [2] is neuroblastoma cell line SH-SY5Y. The settings on record: human, 24 h.
Procedure: (§25) LD50 in SH-SY5Y and primary glial culture cells
(§26) cell line SH-SY5Y and primary glial cultures. Viability was measured as
(§27) MTT reduction in presence of increasing concentrations of derivatives.
(§28) Values are expressed as LD50 calculated from dose-response curves of four
(§29) different concentrations. Data are expressed as mean  SEM of five
different experiments in triplicate.
(§30) SH-SY5Y or primary glial cells were cultured in 96-well plates for 24 h. Then, cells
(§31) were treated with the compounds at 10, 30 and 100 µM in the corresponding culture media
(§32) with 1 % FBS After 24 h, cell viability was assessed by the MTT-reduction assay. Control
(§33) cells were incubated with the same concentration of DMSO (0.1 % final concentration)
Viability assay by MTT-reduction
as §14, §15, §16, §17, §18, §19, §20
In data set [3] the test system is primary glial cultures. The settings on record: Sprague-Dawley, rat, 24 h.
Procedure: as §26, §27, §28, §29
different experiments in triplicate.
(§34) Mixed glial cultures were obtained from cerebral cortex of 2-5-day-old Sprague-Dawley rats. After removal of blood vessels and meninges, the forebrains were dissociated in DMEM/F12 medium. After mechanical dissociation, cells were plated (3x10^5 cells/ml) in DMEM/F12 medium with 20 % fetal bovine serum (FBS) and 1 % penicillin/streptomycin (10,000 units), at 37 °C and in a 5 % CO2-supplemented air atmosphere. After 5 days, medium was substituted by DMEM/F12 medium with 10 %
(§35) FBS. Cells were cultured for 7-10 days before treatment.
as §30, §31, §32, §33
Viability assay by MTT-reduction
as §14
measured by the MTT assay [11].
A further data set can be described thus: DPPH reduction assay. The note with it: DPPH 100 µM, 1 h in the dark.
Data set [4] concerns primary glial cultures stimulated with LPS. Description: Nitrite production reduction (Griess) in LPS-stimulated mixed primary glial cultures. It is filed as cell-based, rat. The note with it: for EC50: Rattus norvegicus, LPS 1 μg/mL, 24 h pre-incubation, 18 h co-incubation.
For data set [5], the system named is SH-SY5Y human neuroblastoma cells. The experiment in a line: Neuroprotection against 70 mM K+ ([Ca2+]c overload), MTT. The settings on record: 1 μM, 24 h, basal = 100%.
Procedure: as §1, §2, §3, §4, §5
containing the corresponding compound at 1 µM and the toxic stimuli, namely a mixture […]
viability was assessed by the MTT-reduction method [11] considering basal conditions […]
measured by the MTT assay [11]. […]
treatments. The percentage of protection was calculated as follows: the percentage of cell […]
Data set [6] can be described thus: Oxygen Radical Absorbance Capacity (ORAC) assay. The note with it: Trolox equivalents, ORAC of Trolox = 1.0; AAPH, fluorescein.
Data set [7] deals with blood-brain barrier (passive diffusion). The experiment in a line: Blood-brain barrier permeation assay (PAMPA), porcine brain lipid. The settings on record: PAMPA; 100 µM, PBS pH 7.4, 4 h at 25 °C, mean ± SEM; read-out: PAMPA Pe. It is filed as in vitro ADME.
Experiment in data set [8]: as above
It is filed as in vitro ADME. The settings on record: for PAMPA Prediction: BBB permeability class from Pe.

The subject of data set [9] is neuroblastoma cell line SH-SY5Y. Description: Cytotoxicity (neurotoxicity) in SH-SY5Y, MTT. The note with it: 24 h.
Procedure: as §25, §26, §27, §28, §29
different experiments in triplicate.
as §30, §31, §32, §33
Viability assay by MTT-reduction
as §14, §15, §16, §17, §18, §19, §20
Data set [10] relates to primary glial cultures. Description: Cytotoxicity (gliotoxicity) in primary glial cultures, MTT. The settings on record: 24 h.
Procedure: as §26, §27, §28, §29
different experiments in triplicate.
as §34, §35, §30, §31, §32, §33
Viability assay by MTT-reduction
as §14
measured by the MTT assay [11].
Data set [11] relates to SH-SY5Y human neuroblastoma cells. The experiment in a line: Neuroprotection against okadaic acid (tau hyperphosphorylation), MTT. The settings on record: 18 h.
Procedure: as §1, §2, §3, §4, §5, §6, §7, §8, §9, §10, §11, §12, §13
Viability assay by MTT-reduction
as §14, §15, §16, §17, §18, §19, §20, §21, §22, §23, §24
In a further data set the target is GSK-3β (Homo sapiens, UniProt P49841). The experiment in a line: GSK-3β inhibition, Kinase-Glo luminescence assay.
Sequence of GSK-3β (P49841 whole entry): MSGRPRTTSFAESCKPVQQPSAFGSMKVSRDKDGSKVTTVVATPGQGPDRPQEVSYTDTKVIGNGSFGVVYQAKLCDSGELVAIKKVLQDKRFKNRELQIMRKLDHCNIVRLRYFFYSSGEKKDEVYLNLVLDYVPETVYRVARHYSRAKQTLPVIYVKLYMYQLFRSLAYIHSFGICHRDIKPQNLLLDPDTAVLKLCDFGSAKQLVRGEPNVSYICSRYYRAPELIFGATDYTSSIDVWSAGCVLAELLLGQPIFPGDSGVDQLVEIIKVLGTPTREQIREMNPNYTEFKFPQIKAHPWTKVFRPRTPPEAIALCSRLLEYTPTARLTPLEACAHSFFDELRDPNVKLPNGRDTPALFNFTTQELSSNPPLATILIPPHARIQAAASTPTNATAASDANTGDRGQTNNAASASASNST
Data set [12] concerns voltage-dependent Ca^2+ channels (VDCC). Description: Voltage dependent calcium channels blockade assay (Fluo-4, 70 mM K+). It is filed as cell-based, human. The settings on record: compounds at 10 μM, SH-SY5Y, basal = 100% response. As for the experimental part:
Free cytosolic Ca^2+ was measured using the fluorescence Ca^2+ indicator Fluo-4/AM. SH-SY5Y cells were seeded in 96-well black bottom transparent plates at a density of 60,000 cells per well and cultured until they reach confluence. Cells were incubated with the Ca^2+ sensitive dye Fluo-4/AM at 5 µM in Krebs-HEPES buffer (KH) (145 mM NaCl, 4.9 mM KCl, 1.2 mM MgCl2, 2 mM CaCl2, 10 mM HEPES, 11 mM glucose, pH 7.4), and 0.05% pluronic acid, for 1 h at 37 °C in the dark. Then, cells were washed twice with KH solution to remove the excess of probe and compounds in solution were added. Test compounds at 10 µM were incubated 10 min before K^+ 70 mM was applied to trigger cytosolic Ca^2+ increase. Fluorescence was measured in a fluorescence microplate reader (FLUOstar Optima, BMG, Ortenberg, Baden-Wuerttemberg, Germany) at excitation and emission wavelengths 485 and 520 nm, respectively. To normalize Fluo-4 signals, Triton X-100 (5%) and subsequently MnCl2 1 M were applied to the cells to register maximal and minimal fluorescence, respectively. Data were calculated as a percentage of Fluorescence increment with respect to Fmax − Fmin. The percentage of response was calculated considering basal conditions as 100% response.
Voltage dependent Calcium Channel Blockade Assay
Free cytosolic Ca2+ was measured using the fluorescence Ca2+ indicator Fluo-4/AM.
SH-SY5Y cells were seeded in 96-well black bottom transparent plates at a density of 60,000 cells per well until reaching confluence. Cells were incubated with the Ca2+ sensitive dye fluo-4 AM at 5 µM in Krebs-Hepes buffer (KH) (145 mM NaCl, 4.9 mM KCl, 1.2 mM MgCl2, 2 mM CaCl2, 10 mM HEPES, 11 mM glucose, pH 7.4), and 0.05 % pluronic acid, for 1 h at 37 °C in the dark. Then, cells were washed twice with KH solution to remove the excess of probe and compounds in solution were added. Tested compounds at 10 µM were incubated 10 min before K+ 70 mM was applied to evoke the increment of cytosolic Ca2+. The experiments were analyzed at excitation and emission wavelengths of 485 and 520 nm, respectively, and fluorescence was measured in a fluorescence microplate reader (FLUOstar Optima, BMG, Germany). To normalize Fluo-4 signals, Triton X-100 (5 %) and subsequently MnCl2 1 M were applied to cells for registering both maximal and minimal fluorescence, respectively. Data were calculated as % F increment respect to Fmax – Fmin. % of blockade was calculated considering basal conditions as 100 % response.
Then, the donor filter plate was carefully put on the acceptor plate to form a “sandwich”, which was left undisturbed for 4 h at 25 °C. During this time, the compounds diffused from the donor plate through the polar brain lipid membrane (area = 0.28 cm2) into the acceptor plate. After incubation, the donor plate was carefully removed. UV plate reader determined the concentration of compounds and commercial drugs in both acceptor and […]

Data set [13] has as its system rat hippocampal slices. Description: ROS production (H2DCFDA) in rat hippocampal slices treated with okadaic acid. It is filed as cell-based. The settings on record: OA 1 μM + compound 10 μM, 6 h.
Data set [14] has as its system rat hippocampal slices. The settings on record: OA 1 μM alone, 6 h.
Procedure: Finally, cell viability and ROS production were measured.
After the co-incubation period, cell
as §13
Viability assay by MTT-reduction
as §14, §15, §16, §17, §18, §19, §20, §21, §22, §23, §24
Acute treatment in rat hippocampal slices
3-4 months-old Sprague-Dawley rats were beheaded and both hippocampi dissected
0.5 mM CaCl2; 11 mM glucose and 200 mM sucrose at pH 7.4). […]
All values are expressed as mean ± S.E.M. IC50 and LD50 values were calculated by […]
Data set [15] relates to primary glial cultures stimulated with LPS. The note with it: read-out: EC50 Nitrite Reduction; LPS 1 μg/mL; cited from earlier work.

Procedure for DPPH reduction assay: The final solution was incubated during 1 h in the dark. […] Results are expressed as a percentage of DPPH reduction by subtracting blank absorbance (Absblank) to sample absorbance (Abssample) and corrected by control absorbance, (Abscontrol, DPPH alone, as expressed below: % DPPH reduction = [100 − ((Abssample − Absblank) × 100/Abscontrol)](1)
Briefly, the compounds under assay (150 µL) at the desired concentration (1, 10, 60 and 100 µM) in methanol/water (80/20) were added to a solution of DPPH in methanol/water (80/20) (150 µL, 100 µM), in a clear bottom 96-well plate, and the final solution was incubated 1 h in the dark. Then, DPPH absorbance of blank (methanol/water), control
Optima plate-reader (BMG Labtech, Ortenberg, Germany) in duplicate.
Results are expressed as % of absorbance (Abs) reduction of control after subtracting blank absorbance, as expressed
% DPPH reduction = [100 – (Abssample-Absblank) x 100]/Abscontrol

Consider `COc1ccc2[nH]cc(CCNC(C)=O)c2c1` [Melatonin], for which, in data set [1], the “percentage of protection, R/O toxicity” value is given as 52.5%. In addition, the “SH-SY5Y LD50” value in [2] is given as over 100 µM. In addition, the Glial cultures LD50 in the data set on primary glial cultures [3] is over 100 µM.

As for `Cc1[nH]nc2c1C(c1ccncc1)C(C#N)=C(N)N2` (stereo not shown) [4l], the “percentage of protection, R/O toxicity” value in [1] is 71.6%. Further, the IC50 in the data set “DPPH reduction assay” is 22.9 ± 4.23 µM; on GSK-3β, 10.2 ± 3.2 µM. Further, in data set [4], the concentration for a half-maximal effect (EC50) turned out to be 15.6 ± 3.35 µM. Also, the “survival percentage, high K+ toxicity” value in data set [5] amounted to 78.9%. Besides, the “ORAC (T. Eq.)” value in data set [6] is 1.1 T. Eq. and 1.10 ± 0.13 T. Eq. The Papp at 4 h, 100 µM in data set [7] worked out at 5 ± 2.9 ×10⁻⁶ cm/s. For the same compound, the “PAMPA Prediction” value in [8] is listed as “CNS+”. In addition, in data set [9], the “SH-SY5Y LD50” value was over 100 µM. In addition, in the data set with primary glial cultures [10], the Glial cultures LD50 is over 100 µM. In data set [11] (1 μM, OA 20 nM), the “percentage of protection, okadaic acid toxicity” value is reported as “over 50%”. The compound further registered a Ki on GSK-3β of 7.14 µM. In addition, the “VDCC % Response” value in [12] is reported as 68.9 ± 4.5%.

Regarding `Cc1[nH]nc2c1C(c1ccc(Br)cc1)C(C#N)=C(N)N2` (stereo not shown) [4g, 6-amino-4-(4-bromophenyl)-3-methyl-4,7-dihydro-2H-pyrazolo[3,4-b]pyridine-5-carbonitrile], the “percentage of protection, R/O toxicity” value in [1] was found to be 59.7%. In the data set “DPPH reduction assay”, the concentration for half-maximal inhibition (IC50) was 24.1 ± 3.74 µM. In addition, the half-maximal effective concentration (EC50) in data set [4] was 4.5 ± 0.6 µM. For the same compound, in data set [4] (ratio of nitrite reduction EC50 values), the “fold more potent as anti-inflammatory than 4f” value stood at 2.2 fold. Moreover, the “ORAC (T. Eq.)” value in [6] was 0.96 T. Eq. and 0.96 ± 0.05 T. Eq. Also, the Papp at 4 h, 100 µM in data set [7] turned out to be 7.2 ± 2.4 ×10⁻⁶ cm/s. Also, the “PAMPA Prediction” value in data set [8] is “CNS+”. The “BBB permeation prediction in words” value in [8] (PAMPA) is recorded as “predicted to cross the BBB”. Besides, the “free radical production (H2DCFDA fluorescence)” value in the data set on rat hippocampal slices [13] is reported as “reduced free radical production to basal conditions”. In addition, the “SH-SY5Y LD50” value in data set [9] is given as over 100 µM. The Glial cultures LD50 in the data set with primary glial cultures [10] was over 100 µM. For the same compound, in [11] (Homo sapiens, SH-SY5Y, read-out: cell viability (percentage survival), okadaic acid toxicity), the viability at 1 µM was found to be 86.7%. On GSK-3β, the 50% inhibitory concentration (IC50) was 2.35 ± 1.1 µM and the Ki was found to be 1.65 µM. In addition, in [12], the “VDCC % Response” value was 62% and 62.1 ± 1.6%.

On to `C=C1[C@@H](O)[C@@H]2O[C@]3(CC[C@H](/C=C/[C@@H](C)[C@@H]4CC(C)=C[C@@]5(O[C@H](C[C@@](C)(O)C(=O)O)CC[C@H]5O)O4)O3)CC[C@H]2O[C@@H]1[C@@H](O)C[C@H](C)[C@H]1O[C@@]2(CCCCO2)CC[C@H]1C` [OA, okadaic acid], for which the “reduction of cell viability of hippocampal slices” value in the data set with rat hippocampal slices [14] was 30%.

Turning to `Cc1[nH]nc2c1C(c1cccc(Cl)c1)C(C#N)=C(N)N2` (stereo not shown) [4d], in [1], the “percentage of protection, R/O toxicity” value is 32.0%. Moreover, the “percentage of survival, R/O toxicity” value in data set [1] (basal = 100%) is 72.3%. This compound also returned an IC50 in “DPPH reduction assay” of 22.8 ± 4.63 µM. Further, the concentration giving a half-maximal response (EC50) in [4] amounted to 0.78 ± 1.98 µM. Besides, the “survival percentage, high K+ toxicity” value in data set [5] was 61.4%. Moreover, the “ORAC (T. Eq.)” value in [6] is 0.63 T. Eq. and 0.63 ± 0.09 T. Eq. The Papp at 4 h, 100 µM in data set [7] turned out to be 11.8 ± 3 ×10⁻⁶ cm/s. In addition, the “PAMPA Prediction” value in data set [8] is given as “CNS+”. Moreover, the “SH-SY5Y LD50” value in data set [9] is given as over 100 µM. In addition, the Glial cultures LD50 with primary glial cultures [10] is over 100 µM. Further, on GSK-3β, the IC50 stood at 1.05 ± 0.3 µM and the affinity, expressed as Ki, was 0.74 µM. For the same compound, the “VDCC % Response” value in data set [12] was found to be 76.0 ± 6.5%.

Regarding `C[S+]([O-])CCCCN=C=S` (stereo not shown) [Sulforaphane], the EC50 in data set [15] was 1.4 ± 0.3 µM.
